Series [1] relates to single cycle replicable HIV NL4-3 virions. Nature of the series: single-cycle HIV-1 replication assay in HeLa cells (p24 ELISA). Type of series: cell-based. As to conditions: for EC50: Human immunodeficiency virus 1, NL43, HeLa, 72 h, read-out: Anti-HIV-1 activity (EC50). A general note: ELISA stands for enzyme-linked immunosorbent assay.
A short description of a further series: in vitro. As to conditions: human.
Details of series [2]: method as in PMID 27659398, PMID 21728968, PMID 22214459, PMID 21767569. As to conditions: cited from earlier work.
For another series, the system named is HIV-1 integrase (IN). The arrangement: method as in PMID 27659398, PMID 21728968, PMID 22214459, PMID 21767569. As to conditions: cited from earlier work.
A further series relates to HIV-1. The arrangement: method as in PMID 27659398, PMID 21728968, PMID 22214459, PMID 21767569. As to conditions: cited from earlier work.

Molecules are shown by their SMILES.

For orientation: EC50 means the concentration giving half of the maximal effect.

In the case of `O=C(O)C(O)=CC(=O)c1nc2ccccc2n1Cc1ccccc1F` [Compound 13g, 4-(1-(2-fluorobenzyl)-1H-benzo[d]imidazol-2-yl)-2-hydroxy-4-oxo-2-butenoic acid], in series [1], the “SI (selectivity index, CC50/EC50 ratio)” value came out at 13.7 and the EC50 was 40 µM. This compound also came in with a CC50 at 72 h in the series “in vitro” of 550 µM.
For `O=C(O)C(O)=CC(=O)c1nc2ccccc2n1Cc1cccc(Cl)c1` [Compound 13f, 4-(1-(3-chlorobenzyl)-1H-benzo[d]imidazol-2-yl)-2-hydroxy-4-oxo-2-butenoic acid] the same measures were 7.4, 55 µM and 410 µM.
The matching figures for `O=C(O)C(O)=CC(=O)c1nc2ccccc2n1Cc1cccc(F)c1` [Compound 13h, 4-(1-(3-fluorobenzyl)-1H-benzo[d]imidazol-2-yl)-2-hydroxy-4-oxo-2-butenoic acid]: 8.7, 55 µM and 480 µM.
On to `COc1cccc(Cn2c(C(=O)C=C(O)C(=O)O)nc3ccccc32)c1` [Compound 13i, 4-(1-(3-methoxybenzyl)-1H-benzo[d]imidazol-2-yl)-2-hydroxy-4-oxo-2-butenoic acid], for which, in series [1], the “SI (selectivity index, CC50/EC50 ratio)” value was 5.4 and the 50% effective concentration (EC50) worked out at 90 µM. The CC50 at 72 h in the series “in vitro” stood at 490 µM.
On to `O=C(O)/C(O)=C/C(=O)c1cccn1Cc1ccc(F)cc1` [L-731,988], for which the cell toxicity entry in series [2] is recorded as “low cell toxicity”.
For the compound `Cc1nnc(C(=O)NC(C)(C)c2nc(C(=O)NCc3ccc(F)cc3)c(O)c(=O)n2C)o1` [Raltegravir, reference compound], the EC50 in series [1] worked out at 0.9 µM. Besides, in the series “in vitro”, the CC50 was more than 500 µM.
For the compound `COc1cccc2c1c(C(=O)/C=C(\O)C(=O)O)cn2Cc1ccc(F)cc1` [CHI-1043], the “inhibitory activity in enzymatic assays” value in the series with HIV-1 integrase (IN) is “submicromolar”. Moreover, the “inhibitory activity in cellular assays” value in the series on HIV-1 is on record as “submicromolar”. Also, in series [2], the cell toxicity entry is “low cell toxicity”.
As for `Cc1ccccc1Cn1c(C(=O)C=C(O)C(=O)O)nc2ccccc21` [Compound 13b, 4-(1-(2-methylbenzyl)-1H-benzo[d]imidazol-2-yl)-2-hydroxy-4-oxo-2-butenoic acid], in series [1], the “SI (selectivity index, CC50/EC50 ratio)” value is on record as 9.8 and the EC50 worked out at 60 µM. Also, in “in vitro”, the CC50 at 72 h worked out at 590 µM.
For the compound `Cc1cccc(Cn2c(C(=O)C=C(O)C(=O)O)nc3ccccc32)c1` [Compound 13c, 4-(1-(3-methylbenzyl)-1H-benzo[d]imidazol-2-yl)-2-hydroxy-4-oxo-2-butenoic acid], in series [1], the “SI (selectivity index, CC50/EC50 ratio)” value is reported as 5.7 and the half-maximal effective concentration (EC50) worked out at 75 µM. Further, the CC50 at 72 h in the series “in vitro” was 430 µM.
For `O=C(O)C(O)=CC(=O)c1nc2ccccc2n1Cc1ccccc1Cl` [Compound 13e, 4-(1-(2-chlorobenzyl)-1H-benzo[d]imidazol-2-yl)-2-hydroxy-4-oxo-2-butenoic acid] the same measures were 2.4, 155 µM and 380 µM.
As for `O=C(O)C(O)=CC(=O)c1nc2ccccc2n1Cc1ccccc1` [Compound 13a, 4-(1-benzyl-1H-benzo[d]imidazol-2-yl)-2-hydroxy-4-oxo-2-butenoic acid], in series [1], the “SI (selectivity index, CC50/EC50 ratio)” value was 4.5 and the concentration for a half-maximal effect (EC50) stood at 110 µM. In “in vitro”, the CC50 at 72 h is 500 µM.
For `Cc1ccc(Cn2c(C(=O)C=C(O)C(=O)O)nc3ccccc32)cc1` [Compound 13d, 4-(1-(4-methylbenzyl)-1H-benzo[d]imidazol-2-yl)-2-hydroxy-4-oxo-2-butenoic acid] the same measures were 11.6, 50 µM and 580 µM.
